{"source": "paper PMC7648750", "about": "“In vitro and in vivo BNCT investigations using a carborane containing sulfonamide targeting CAIX epitopes on malignant pleural mesothelioma and breast cancer cells” (Scientific Reports, 2020)", "key": {"[1]": {"test": "Mice weight monitoring after treatment", "type": "in vivo, Balb/c mice", "experimental": "CA-SF treatment on mesothelioma bearing mice, were performed in the thermal column of the TRIGA Mark II reactor at Pavia University (Italy) using the same protocol reported in reference^35. The irradiation facility was previously designed for TAOrMINA treatment developed to treat multiple liver metastases with BNCT. The chamber used to perform animal irradiation has a cross section of 40 × 20 cm^2, a length of 1 m and it starts at about 1.3 m from the center of the reactor core. The animal irradiation position has been characterised in terms of neutron spectrum and background photon dose[43]. To carry out neutron irradiation animals are positioned at the end of this chamber where the in air thermal neutron flux is approximately 1.2 × 10^10 n/cm^2s, operating the reactor at its maximum power. In this way the thermal neutron flux is maximised and the irradiation time is kept as short as possible (never longer than 15 min). The first mice group (irradiated and treated group, n = 5) received three doses of CA-SF/poli β cyclodextrin (37.5 mg boron/kg dose) prepared as described before. […]\nThe weight of IRR, CA-SF and CA-SF + IRR groups was monitored till the end of the experiment (Supplementary Figure S1)."}, "AB22 cells": {"tested_on": "AB22 cells", "test": "BNCT in vitro: viable cells 24 h after neutron irradiation (trypan blue)", "type": "cell-based, mouse", "conditions": "AB22, 130 µM 24 h, thermal neutrons 15 min 30 kW, 24 h after irradiation", "experimental": "75 flasks of MCF7 (4 flasks), ZL34 (4 flasks) and AB22 (4 flasks) were seeded at a density of 1.8 × 10^6 cells, 1.2 × 10^6 cells and 5.5 × 10^5 cells, respectively. 24 h later for MCF7 and ZL34 and 72 h later for AB22, 2 flasks of each cell lines were incubated for 24 h in the presence of 72 µM, 187.5 µM and 130 µM of CA-SF, respectively. After the incubation, cells were washed with PBS and their medium was renewed. Two flasks of MCF7, ZL34 and AB22 cells incubated with CA-SF and two flasks containing non-treated control cells were irradiated for 15′ at 30 kW reactor power in the thermal column of the TRIGA Mark II reactor at the University of Pavia, Italy. At the end of the irradiation, the medium was removed, it was replaced with fresh medium and flasks were placed at 37 °C in a humidified atmosphere of 5% CO2.\nThe proliferation assay was carried out following the same procedure reported in reference 32. The day after irradiation cells were detached with 0.05% trypsin and 0.02% EDTA and the trypan blue exclusion test of cell viability was performed. Cell viability was reported as percentage of cells observed in treated a/o irradiated samples relative to that observed in control cells."}, "ZL34 cells": {"tested_on": "ZL34 cells", "test": "Cell uptake of boron (ICP-MS)", "type": "cell-based, human", "conditions": "ZL34, 187.5 µM CA-SF in culture medium, 24 h, 37 °C", "experimental": "(§1) For the in vitro uptake experiments, 6 × 10^5 MCF7, 4.5 × 10^5 ZL34 and 2 × 10^5 AB22 were seeded in 6 cm of diameter dishes. After 24 h for MCF7 and ZL34 and after 72 h for AB22, the cells were incubated for 24 h with increasing concentration of CA-SF. All the incubations were performed in condition of normoxia at 37 °C, 5% CO2. At the end of the incubation, cells were washed three times with 3 ml ice-cold PBS and detached with 0.05% trypsin and 0.02% EDTA. Finally, all cell samples were transferred in falcon tubes and sonicated at 30% of power for 30 s in ice. The boron content of each cell sample lysates was determined by ICP-MS technique (see below). The milligrams of proteins, proportional to the number of cells, of each cell sample lysate, was evaluated by the Bradford assay (Biorad) using bovine serum albumin as a standard.\n(§2) Boron content from cell samples, mice organs, plasma and tumours were determined using inductively coupled plasma mass spectrometry (ICP-MS) (Element-2; Thermo-Finnigan, Rodano (MI), Italy).\n(§3) Sample digestion was performed using a high performance Microwave Digestion System (ETHOS UP Milestone, Bergamo, Italy) after the addition of concentrated HNO3 (70%) to cell lysates (1:1), in a final volume of 0.4 mL. […] The amounts of boron µg /g tissue were thus calculated considering that 1 g of tissue contains 1 × 10^9 cells."}, "MCF7 cells": {"tested_on": "MCF7 cells", "test": "Cell uptake of boron (ICP-MS)", "type": "cell-based, human", "conditions": "MCF7, 72 µM CA-SF in culture medium, 24 h, 37 °C", "experimental": "as §1, §2, §3"}}, "data": [{"substance": "1-Sulfonamidomethyl-o-carborane [CA-SF]", "values": [{"measurement": "loss of initial weight", "setting": "[1]; treated and irradiated mice, CA-SF three doses + 15 min irradiation 250 kW", "result": 10, "unit": "%"}, {"measurement": "weight decrease at the end of the study", "setting": "[1]; treated mice (CA-SF, not irradiated)", "result": 5, "unit": "%"}, {"measurement": "viability of CA-SF treated and irradiated cells vs CA-SF treated cells", "setting": "AB22 cells", "result": "significantly reduced"}, {"measurement": "boron loaded into the target cells", "setting": "ZL34 cells", "result": 90, "unit": "µg/g"}, {"measurement": "boron loaded into the target cells", "setting": "MCF7 cells", "result": 60, "unit": "µg/g"}]}]}
